Measurements taken from patent US7205327B2, “Imidazole and benzimidazole caspase inhibitors and uses thereof” (Vertex Pharmaceuticals Incorporated, priority 2000, dated 2007).
Counter-ions that a name gives are not always drawn.

system: FAS induced apoptosis; assay: Anti-fas induced apoptosis assay; assay type: cell-based
From the text: Anti-fas Induced Apoptosis Assay
Cellular apoptosis may be induced by the binding of Fas ligand (FasL) to its receptor, CD95 (Fas). Conditions for an assay to measure the effect of compounds on the inhibition of the caspase-8-mediated apoptotic pathway may be found in WO0142216.

IC50, < 0.2 µM:
CC(C)[C@H](NC(=O)c1ncc[nH]1)C(=O)NC(CC(=O)O)C(=O)CF (stereo partly drawn) [Compound 4, [3S/R,(2S)]-5-Fluoro-3-{2-[(1H-imidazole-2-carbonyl)-amino]-3-methylbutyrylamino}-4-oxo-pentanoic acid]
CC(C)[C@H](NC(=O)c1nc2ccccc2[nH]1)C(=O)NC(CC(=O)O)C(=O)CF (stereo partly drawn) [Compound 5, [3S/R, (2S)]-3-{2-[(1H-Benzoimidazole-2-carbonyl)-amino]-3-methylbutyrylamino}-5-fluoro-4-oxo-pentanoic acid]
C[C@H](NC(=O)c1nc2ccccc2[nH]1)C(=O)NC(CC(=O)O)C(=O)CF (stereo partly drawn) [Compound 2, [3S/R, (2S)]-3-{2-[(1H-Benzoimidazole-2-carbonyl)-amino]-propionylamino}-5-fluoro-4-oxo-pentanoic acid, trifluoroacetate salt]
CC[C@H](NC(=O)c1ncc[nH]1)C(=O)NC(CC(=O)O)C(=O)CF (stereo partly drawn) [Compound 3, [3S/R,(2S)]-5-Fluoro-3-{2-[(1H-imidazole-2-carbonyl)-amino]-butyrylamino}-4-oxo-pentanoic acid, trifluoroacetate salt]
C[C@H](NC(=O)c1ncc[nH]1)C(=O)NC(CC(=O)O)C(=O)CF (stereo partly drawn) [Compound 1, [3S/R,(2S)]-5-Fluoro-3-{2-[(1H-imidazole-2-carbonyl)-amino]-propionylamino}-4-oxo-pentanoic acid, trifluoroacetate salt]
